Values joined by “and” are separate entries in the source; they are usually repeats but may differ in a detail not shown here. Equal entries are not always repeated.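 Following 48 hours of exposure in 96-well plates, responses at five concentrations were used to interpolate endpoints linearly. GI50: concentration for 50% inhibition of growth. TGI: concentration producing complete growth inhibition.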 Where a SMILES comes first, the peptide text is derived from it.
What was measured:
Experiment in all cases: NCI tumour cell line growth inhibition, 48 h
M19-MEL melanoma = tested on: M19-MEL melanoma
DMS 114 small cell lung = tested on: DMS 114 small cell lung
DLD-1 colon = tested on: DLD-1 colon
KM20L2 colon = tested on: KM20L2 colon
RXF-631 renal = tested on: RXF-631 renal
T-47D breast = tested on: T-47D breast
PC-3 prostate = tested on: PC-3 prostate
MDA-N = tested on: MDA-N
HS 578T breast = tested on: HS 578T breast
SN12K1 renal = tested on: SN12K1 renal
P388 leukemia = tested on: P388 leukemia

SMILES	TGI (M19-MEL melanoma)	TGI (DMS 114 small cell lung)	TGI (DLD-1 colon)	TGI (KM20L2 colon) [µM]	TGI (RXF-631 renal) [µM]	TGI (T-47D breast) [µM]	TGI (PC-3 prostate) [µM]	TGI (HS 578T breast) [µM]	other results
COc1ccc(C(c2ccc(C(C)C)cc(=O)c2O)c2ccc3cccnc3c2O)cc1 (stereo not drawn)	2.54 µM	0.645 µM	15.3 µM						
COC(=O)C1(C(=O)OC)CC2c3c(c4ccccc4n3C)CC(C1=O)N2Cc1ccccc1 (stereo not drawn)	> 100 µM	> 100 µM	> 100 µM	> 100	> 100				
CC(C)CC(NC(=O)C(CC(C)C)NC(=O)C(Cc1cnc[nH]1)NC(=O)C(C)NC(=O)C(NC(=O)C(C)NC(=O)C(Cc1c[nH]c2ccccc12)NC(=O)C(CCC(=O)O)NC(=O)C(N)Cc1ccccc1)C(C)C)C(N)=O (stereo not drawn) (H-FEWAVAHLL-NH2; configuration not given here)	> 100 µM	> 100 µM	> 100 µM	> 100	> 100	> 12.5	> 12.5	> 12.5	TGI (MDA-N): > 12.5 µM
ClC1CCC2OOC1O2 (stereo not drawn)	> 100 µM	> 100 µM		> 100					
Cc1oc2c(C)c(O)c3c(c2c1C1(C)OCCO1)C(=O)C=C(Cl)C3=O	> 100 µM			> 100	> 100				
CC(=O)NC(CCCCNC(=O)N(CCCl)N=O)C(=O)NCc1ccccc1 (stereo not drawn)	> 100 µM	> 100 µM	> 100 µM	> 100	> 100				
NC(CNO)C(=O)O (stereo not drawn)						> 100	> 100	> 100	TGI (MDA-N): > 100 µM
CCOC(=O)c1ccc(N(CCOS(C)(=O)=O)CCOS(C)(=O)=O)cc1C						62.1	> 100	> 100	GI50 (T-47D breast): 16.6 µM; GI50 (PC-3 prostate): 30.4 µM; GI50 (MDA-N): 57.8 µM; TGI (MDA-N): > 100 µM; GI50 (HS 578T breast): 64.1 µM
COc1cc2nc(Sc3c([N+](=O)[O-])ncn3C)[nH]c2cc1OC	> 100 µM	25.8 µM	46 µM	> 100					
COc1cc2ccc3c4c(OC)cc(OC)c(OC)c4c(=O)n(C)c3c2cc1OC	16.7 µM and > 40.9 µM	16.7 µM and 26.6 µM	4.14 µM and > 33.5 µM						GI50 (KM20L2 colon): 0.446 µM; GI50 (RXF-631 renal): 0.495 µM; GI50 (M19-MEL melanoma): 3.7 µM; GI50 (DMS 114 small cell lung): 1.87 µM; GI50 (DLD-1 colon): 1.8 µM
COc1ccc2c(c1)CCc1c(-c3noc4c3CCc3cc(OC)ccc3-4)noc1-2						> 100	> 100	> 100	TGI (MDA-N): > 100 µM
C[C@@H](CO)OCOCc1ccccc1	> 100 µM	> 100 µM	> 100 µM						
Nc1ncnc2c1nc(-c1ccccc1)n2C1OC(CO)C(O)C1O (stereo not drawn)						> 100	> 100	> 100	TGI (MDA-N): > 100 µM
COc1ccc(NC(=O)C(=O)C2CNC(=O)NC2=O)c(OC)c1 (stereo not drawn)		> 100 µM	> 100 µM	> 100					
O=C1CCCC2=C(N1)C(=O)C=CC2=O	> 100 µM	> 56.5 µM	> 100 µM	> 100	> 100	52.7	29.9	79.4	TGI (MDA-N): 30.9 µM
CCOc1ccccc1N=Nc1c(-c2ccccc2)nn(C(=O)CC(=O)Nc2cccc(Cl)c2)c1-c1ccccc1	> 100 µM	> 100 µM	> 100 µM	> 100					
CC(C)NCC(O)COC(=O)c1cccs1 (stereo not drawn)	> 100 µM		> 100 µM	> 100	> 100				
Cc1ccccc1NC(=O)C(=O)C(c1cnc2ccc([N+](=O)[O-])cc2n1)[N+](=O)[O-] (stereo not drawn)	> 100 µM	> 100 µM	> 100 µM	> 100	> 100				
CNNCc1ccc(C(=O)NC(C)C)cc1	> 500 µM		> 500 µM	> 500		> 500	> 500	> 500	GI50 (KM20L2 colon): > 500 µM; TGI (SN12K1 renal): > 456 µM; TGI (MDA-N): > 500 µM; TGI (P388 leukemia): > 500 µM
COC(=O)C1=CN=C(C(=O)OC)NN1	> 100 µM	> 100 µM	> 100 µM	> 100	> 100				
CCc1ccccc1NC(=O)CCc1n[nH]c(=S)o1	> 100 µM	> 100 µM	> 100 µM	> 100					
Cc1c(C(=O)CC(=O)C(=O)Nc2ccc(Cl)c(Cl)c2)[n+](=O)c2ccccc2n1[O-]	33.3 µM	34.3 µM		> 100	60.3				
COC(=O)C(C(=O)C(=O)NC1=C(Cl)C(=O)c2ccccc2C1=O)c1csc(-n2nc(-c3ccccc3)cc2-c2ccccc2)n1 (stereo not drawn)	> 100 µM	> 100 µM	> 100 µM	> 100	> 100				
Cc1cc(C)c(O)c(Cc2cccc(Cc3cc(C)cc(C)c3O)c2O)c1						> 100	> 100	> 100	TGI (MDA-N): > 100 µM
COC(=O)N/N=C(/CCN1CCCC1)CC(c1ccccc1)c1c(O)c2ccccc2oc1=O (stereo not drawn)	> 100 µM		> 100 µM	> 100					
NC(=O)N/N=C(\C(=O)C(=O)Nc1ccc(Cl)c(C(F)(F)F)c1)c1nc2ccc(C(=O)c3ccccc3)cc2[nH]c1=O	> 100 µM	> 100 µM		> 100					
N/C(=N\N=C\c1cccs1)NO	> 100 µM	> 100 µM	> 100 µM		> 100				
O=[N+]([O-])c1cc(CCl)ccc1CCl						1.03	3.08	11.4	TGI (MDA-N): 4.23 µM

SMILES	TGI (M19-MEL melanoma)	TGI (DMS 114 small cell lung)	TGI (DLD-1 colon)	TGI (KM20L2 colon) [µM]	TGI (RXF-631 renal) [µM]	TGI (T-47D breast) [µM]	TGI (PC-3 prostate) [µM]	TGI (HS 578T breast) [µM]	other results
COc1cc(-c2cc(=O)c3ccccc3o2)ccc1N	> 100 µM	> 100 µM		> 100					
O=c1cc(-c2ccc(Cl)cc2)[nH]c2ncccc12						> 100	> 100	> 100	GI50 (PC-3 prostate): 47.6 µM; GI50 (MDA-N): 8.26 µM; TGI (MDA-N): 26.1 µM
O=C1C(=O)N(C(=O)c2ccc(Cl)c(Cl)c2)c2ccc(Cl)cc21	39.9 µM	66 µM	> 100 µM						
CC1(C)OC(C(N)=O)=C(C(N)=O)O1	> 100 µM	> 100 µM	> 100 µM	> 100					
CN(C)C(=O)/N=c1\ss/c(=N\C(=S)N(C)C)n1-c1ccccc1	> 100 µM		> 100 µM	> 100	> 100				GI50 (DMS 114 small cell lung): 0.0334 µM
Cc1ccc([N+](=O)[O-])cc1NC(=O)C(=O)Cc1occc(=O)c1O	> 100 µM	> 100 µM	> 100 µM	> 100					
O=C(/C=C\c1cccc2ccccc12)c1cccs1	22.4 µM	14 µM	16.9 µM	22.5					
COc1cc(/C=C2\[C@H]3c4c(c(OC)c(C)c(OC)c4OC)C[C@@H](C(=O)N2Cc2ccccc2)N3C(=O)OC(C)C)c(OC)c(C)c1OC		> 100 µM	> 100 µM	> 100	> 100				
CCC(C)OC(=O)C1C2CCC(O2)C1C(=O)O (stereo not drawn)	> 100 µM	> 56.4 µM	> 77.7 µM	> 63.5					
Oc1ccc(CNCc2ccccc2)c2cccnc12							59.8	> 100	TGI (MDA-N): > 100 µM
COC(=O)C(C(=O)C(=O)Nc1ccccc1C(C)=O)c1nc2ccc(Cl)cc2[nH]c1=O (stereo not drawn)	> 100 µM	> 100 µM	> 100 µM	> 100	> 100				
Cc1c2c(nn1C(=O)c1nn(-c3ccc(Cl)cc3)cc1O)-c1ccccc1CC2						> 100	> 100	> 100	GI50 (T-47D breast): 0.0594 µM; GI50 (PC-3 prostate): 0.0373 µM; GI50 (HS 578T breast): 0.0201 µM
COc1ccc(-c2cc(=O)c3c(OC)c(OC)c(OC)c(OC)c3o2)cc1OC						70.6		95.3	TGI (MDA-N): > 100 µM
O=C(O)c1ccc(O)c(N=Nc2cc(S(=O)(=O)O)c3ccccc3c2O)c1	> 100 µM	> 100 µM	> 100 µM	> 100	> 100				
COc1ccc(/C=C2\CN(Cc3cn(CCCNc4ccnc5cc(Cl)ccc45)nn3)C/C(=C\c3ccc(OC)c(OC)c3)C2=O)cc1OC						9.42	3.22	9.97	GI50 (T-47D breast): 2.42 µM; GI50 (PC-3 prostate): 0.843 µM; GI50 (HS 578T breast): 1.99 µM
CCCc1cc2cc(-n3nc(C)c4c3CC(C)(C)CC4=O)cc(NC3CCC(O)CC3)c2c(=O)[nH]1 (stereo not drawn)						> 100	> 100	> 100	GI50 (T-47D breast): 0.0994 µM; GI50 (PC-3 prostate): 0.423 µM; GI50 (HS 578T breast): 0.989 µM
O=C(Nc1nccs1)c1cc2c(cc1Cl)Sc1nccn1S2(=O)=O						64.5	33.4	91.7	GI50 (T-47D breast): 23.4 µM; GI50 (PC-3 prostate): 16.8 µM; GI50 (MDA-N): 17.9 µM; TGI (MDA-N): 33.4 µM; GI50 (HS 578T breast): 28.5 µM
Cc1cccc2c(N=Nc3ccc(S(N)(=O)=O)cc3)c(O)[nH]c12						> 25	> 25	> 25	GI50 (T-47D breast): > 25 µM; GI50 (PC-3 prostate): > 25 µM; GI50 (HS 578T breast): > 25 µM
C#CCOCn1cnc2c(=S)nc[nH]c21	> 100 µM	> 100 µM	> 100 µM	> 100	> 100				
CC(=O)O[C@H]1C(=O)O[C@@H]2C[C@H]3C(C)=CC(=O)[C@@H](O)[C@]3(C)[C@H]3[C@@]4(O)OC[C@]32[C@@H]1[C@@H](C)[C@H]4O	0.072 µM	0.041 µM	0.403 µM	2.43			0.137	0.19	TGI (SN12K1 renal): 0.0696 µM; TGI (MDA-N): 0.127 µM; TGI (P388 leukemia): 0.555 µM
C/C=C/C=N/N(C(=O)c1cc([N+](=O)[O-])cc([N+](=O)[O-])c1)C1=NC(c2ccccc2)C(c2ccccc2)=NN1 (stereo not drawn)	46.2 µM	48.4 µM	> 100 µM	93.9	> 100				
O=C1N=C(c2ccccc2)OC1C(=O)c1ccccc1 (stereo not drawn)						> 100	> 100	> 100	TGI (MDA-N): > 100 µM
N=C1N(c2ccccc2)C(=O)C23CCCC2C13N1CCOCC1 (stereo not drawn)	> 100 µM	> 100 µM	> 100 µM	> 100	> 100				
Nc1ncnc(NC2C=C(CO)C(O)C2O)c1[N+](=O)[O-] (stereo not drawn)	> 100 µM	> 100 µM	> 100 µM	> 100	> 100				
COC(=O)C(=O)C(C(=O)C(=O)Nc1ccc(Cl)cc1C)c1nc2ccc(C(=O)c3ccccc3)cc2[nH]c1=O (stereo not drawn)	> 100 µM	> 100 µM	> 100 µM	> 100	> 100				
COc1ccc(/C(C)=C(\c2ccc(Cl)cc2)c2ccc(OCCN3CCCC3)cc2)cc1F						7.87	6.71	9.55	GI50 (T-47D breast): 3.3 µM; GI50 (PC-3 prostate): 3.04 µM; GI50 (HS 578T breast): 3.77 µM
CN=C1Nc2ccc(Cl)cc2C(c2ccccc2)=NN1C	> 100 µM	> 100 µM	> 100 µM	> 100	> 100				

Reference: PubChem BioAssay (NCI)
